Among the data in US11130726B2, “Therapeutic compounds and methods of use thereof” (GENENTECH, INC., priority 2015, dated 2021) are IC50 values, retold here.

The target in this experiment is T1, hNav1.7 (Homo sapiens, UniProt Q15858).
T1 construct: expressed in transfected cells
T1 sequence (Q15858 whole entry): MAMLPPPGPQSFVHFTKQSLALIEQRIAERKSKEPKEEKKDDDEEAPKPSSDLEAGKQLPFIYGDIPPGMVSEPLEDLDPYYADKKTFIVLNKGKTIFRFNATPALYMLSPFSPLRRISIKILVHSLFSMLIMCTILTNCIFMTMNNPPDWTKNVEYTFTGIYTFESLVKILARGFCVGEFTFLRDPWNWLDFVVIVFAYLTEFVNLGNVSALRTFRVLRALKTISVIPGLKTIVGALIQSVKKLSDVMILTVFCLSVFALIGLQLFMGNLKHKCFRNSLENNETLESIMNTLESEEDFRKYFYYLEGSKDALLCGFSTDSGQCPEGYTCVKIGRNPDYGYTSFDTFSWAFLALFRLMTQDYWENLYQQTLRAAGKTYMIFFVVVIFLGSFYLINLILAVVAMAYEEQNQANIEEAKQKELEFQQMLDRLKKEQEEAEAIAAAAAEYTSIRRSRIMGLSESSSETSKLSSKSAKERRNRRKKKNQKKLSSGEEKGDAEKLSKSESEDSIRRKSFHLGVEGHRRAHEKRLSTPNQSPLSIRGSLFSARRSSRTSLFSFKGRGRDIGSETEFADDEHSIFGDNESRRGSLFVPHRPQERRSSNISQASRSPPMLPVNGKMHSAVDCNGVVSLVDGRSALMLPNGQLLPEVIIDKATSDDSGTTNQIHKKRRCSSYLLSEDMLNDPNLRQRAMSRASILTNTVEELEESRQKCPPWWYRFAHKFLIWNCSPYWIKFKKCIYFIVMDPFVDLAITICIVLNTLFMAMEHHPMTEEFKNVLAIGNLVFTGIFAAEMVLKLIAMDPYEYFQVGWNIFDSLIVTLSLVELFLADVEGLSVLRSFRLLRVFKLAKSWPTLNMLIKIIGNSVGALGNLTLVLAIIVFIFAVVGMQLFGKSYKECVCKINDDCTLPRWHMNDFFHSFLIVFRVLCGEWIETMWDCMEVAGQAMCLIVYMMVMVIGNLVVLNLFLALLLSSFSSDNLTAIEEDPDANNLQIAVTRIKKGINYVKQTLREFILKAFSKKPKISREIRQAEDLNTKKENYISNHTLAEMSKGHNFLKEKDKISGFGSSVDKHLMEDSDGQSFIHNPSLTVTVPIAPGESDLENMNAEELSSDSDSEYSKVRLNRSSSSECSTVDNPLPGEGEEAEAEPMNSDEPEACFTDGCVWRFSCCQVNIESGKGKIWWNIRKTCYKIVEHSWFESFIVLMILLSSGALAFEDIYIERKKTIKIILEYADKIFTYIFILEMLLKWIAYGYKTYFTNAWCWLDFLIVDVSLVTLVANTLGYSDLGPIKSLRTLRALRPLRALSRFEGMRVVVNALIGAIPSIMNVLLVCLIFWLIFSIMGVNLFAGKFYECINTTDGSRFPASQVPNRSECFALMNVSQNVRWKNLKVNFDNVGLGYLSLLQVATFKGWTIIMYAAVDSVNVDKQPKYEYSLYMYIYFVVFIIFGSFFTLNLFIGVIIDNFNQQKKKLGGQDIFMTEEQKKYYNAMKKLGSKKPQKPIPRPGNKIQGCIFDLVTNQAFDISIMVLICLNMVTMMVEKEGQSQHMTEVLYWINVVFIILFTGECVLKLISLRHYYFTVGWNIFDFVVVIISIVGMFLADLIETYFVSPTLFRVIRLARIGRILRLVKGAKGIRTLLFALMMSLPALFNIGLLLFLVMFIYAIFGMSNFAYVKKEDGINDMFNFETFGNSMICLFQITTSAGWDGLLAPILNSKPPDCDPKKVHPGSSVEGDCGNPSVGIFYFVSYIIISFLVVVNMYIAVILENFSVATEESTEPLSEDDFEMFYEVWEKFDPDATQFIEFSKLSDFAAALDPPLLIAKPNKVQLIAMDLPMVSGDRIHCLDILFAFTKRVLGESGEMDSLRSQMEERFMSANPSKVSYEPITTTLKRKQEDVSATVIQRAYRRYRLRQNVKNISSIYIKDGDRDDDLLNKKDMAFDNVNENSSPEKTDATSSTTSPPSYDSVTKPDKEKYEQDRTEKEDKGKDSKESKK
T1 sequence (Q07699 19-218 partner): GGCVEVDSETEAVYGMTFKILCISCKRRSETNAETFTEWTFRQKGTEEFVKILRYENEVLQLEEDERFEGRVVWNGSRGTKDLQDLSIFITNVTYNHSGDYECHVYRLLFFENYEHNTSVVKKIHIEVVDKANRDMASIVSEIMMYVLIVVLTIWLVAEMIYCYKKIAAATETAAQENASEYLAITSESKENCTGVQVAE
Description: Tritiated compound competitive binding to membranes from cells heterologously expressing hNav1.7 and the β1 subunit (LBA). Conditions: read-out: NaV1.7 (LBA). On the procedure: Example 19 Tritiated Compound Binding to Membranes Isolated from Cells that Heterologously Express hNav1.7 and the β1 Subunit
Preparation of membranes containing recombinantly expressed sodium channels: Frozen recombinant cell pellets were thawed on ice and diluted to 4 times the cell pellet weight with ice cold 50 mM Tris HCl, pH 7.4 buffer. The cell suspensions were homogenized on ice using a motorized glass dounce homogeniser. Homogenates were further diluted 8.4 times with ice cold 50 mM Tris HC1, pH 7.4 buffer and then centrifuged at 200× g at 4° C. for 15 min. The supernatants were collected and centrifuged at 10000× g at 4° C. for 50 min. The pellets were then re-suspended in 100 mM NaCl, 20 mM Tris HCl, pH 7.4 buffer containing 1% v/v protease inhibitors (Calbiochem) and re-homogenized on ice. The homogenized membranes were then processed through a syringe equipped with a 26 gauge needle. Protein concentrations were determined by Bradford Assay and the membranes were stored at −80° C.
Radioligand Binding Studies: Saturation experiments. A competitive NaV1.7 inhibitor having a methyl group was tritiated. Three tritiums were incorporated in place of methyl hydrogens to generate[^3H]compound. Binding of this radioligand was performed in 5 mL borosilicate glass test tubes at room temperature. Binding was initiated by adding membranes to increasing concentrations of [^3H]compound in 100 mM NaCl, 20 mM Tris HCl, pH 7.4 buffer containing 0.01% w/v bovine serum albumin (BSA) for 18 h. Non-specific binding was determined in the presence of 1 μM unlabeled compound. After 18 h, the reactants were filtered through GF/C glass fiber filters presoaked in 0.5% w/v polyethylene imine. Filters were washed with 15 mL ice cold 100 mM NaCl, 20 mM Tris HCl, pH7.4 buffer containing 0.25% BSA to separate bound from free ligand. [^3H]compound bound to filters was quantified by liquid scintillation counting.
Competitive binding experiments: Binding reactions were performed in 96-well polypropylene plates at room temperature for 18 h. In 360 μL, membranes were incubated with 100 pM [^3H]compound and increasing concentrations of Test Compound. Non-specific binding was defined in the presence of 1 μM unlabeled compound. Reactions were transferred and filtered through 96-well glass fiber/C filter plates presoaked with 0.5% polyethylene imine. The filtered reactions were washed 5 times with 200 μL ice cold buffer containing 0.25% BSA. Bound radioactivity was determined by liquid scintillation counting.
Data Analysis: For saturation experiments, non-specific binding was subtracted from total binding to provide specific binding and these values were recalculated in terms of pmol ligand bound per mg protein. Saturation curves were constructed and dissociation constants were calculated using the single site ligand binding model: Beq=(Bmax*X)/(X+Kd), where Beq is the amount of ligand bound at equilibrium, Bmax is the maximum receptor density, Kd is the dissociation constant for the ligand, and X is the free ligand concentration. For competition studies percent inhibition was determined and IC50 values were calculated using a 4 parameter logistic model (% inhibition=(A+((B−A)/(1+((x/C)^D)))) using XLfit, where A and B are the maximal and minimum inhibition respectively, C is the IC50 concentration and D is the (Hill) slope.
In the case of `O=C(O)[C@@H]1CC[C@H]1C(=O)c1cc(C2CC2)c(OCC23CC4CC(CC(C4)C2)C3)cc1F` (racemic) [Example 7], the IC50 was 760 nM. The same measure for `O=C(O)[C@@H]1CCC[C@H]1S(=O)(=O)c1cc(Cl)c(OCC23CC4CC(CC(C4)C2)C3)cc1F` (racemic) [Example 15]: 454 nM. The same measure for `O=C(O)[C@@H]1CCC[C@H]1C(=O)c1cc(C2CC2)c(OCc2ccccc2)cc1F` (relative stereo) [Example 8, trans-2-(4-(benzyloxy)-5-cyclopropyl-2-fluorobenzoyl)-cyclopentane-1-carboxylic acid]: 860 nM. For `O=C(O)[C@@H]1CCC[C@H]1C(=O)c1cc(C2CC2)c(COc2cc(Cl)cc(Cl)c2)cc1F` (relative stereo) [Example 10, (1,2-trans)-2-(5-cyclopropyl-4-((3,5-dichlorophenoxy)methyl)-2-fluorobenzoyl)cyclopentane-1-carboxylic acid], the IC50 was 21 nM. Take `CN(c1cc(Cl)c(OCC23C[C@H]4C[C@@H](C2)C[C@@H](C3)C4)cc1F)[C@@H]1CCC[C@H]1C(=O)O` (relative stereo) [Example 18, 2-(4-(1-adamantylmethoxy)-5-chloro-2-fluoro-N-methylanilino)-cyclopentanecarboxylic acid]: the IC50 was more than 10000 nM.

`O=C(O)[C@@H]1CCC[C@H]1[S+]([O-])c1cc(Cl)c(OCC23CC4CC(CC(C4)C2)C3)cc1F` (stereo in doubt) [Example 16]: the IC50 stood at 1290 nM. For the compound `O=C(O)[C@@H]1CCC[C@H]1C(=O)c1cc(C2CC2)c(OCC23CC4CC(CC(C4)C2)C3)cc1F` [Example 1], the IC50 was 9 nM. Consider `O=C(O)[C@H]1CCC[C@@H]1C(=O)c1cc(C2CC2)c(OCC23CC4CC(CC(C4)C2)C3)cc1F` [Example 2], for which the IC50 came to 510 nM. Regarding `O=C(c1cc(Cl)c(OCC23CC4CC(CC(C4)C2)C3)cc1F)[C@H]1CCC[C@H]1C(=O)O` [Example 3], the IC50 worked out at 4200 nM.

Regarding `O=C(O)[C@@H]1CCC[C@H]1C(=O)c1cc(Cl)c(OCC23CC4CC(CC(C4)C2)C3)cc1F` [Example 4], the IC50 worked out at 440 nM.

Regarding `O=C(O)[C@@H]1CCC[C@H]1Cc1cc(C2CC2)c(OCC23CC4CC(CC(C4)C2)C3)cc1F` [Example 5], the IC50 came to 3100 nM. Consider `O=C(O)[C@@H]1CCCC[C@H]1C(=O)c1cc(C2CC2)c(OCC23CC4CC(CC(C4)C2)C3)cc1F` [Example 6], for which the IC50 was determined as 55 nM. Consider `C[C@@H](c1cc(Cl)cc(Cl)c1)N1CCC(COc2cc(F)c(C(=O)[C@@H]3CCC[C@H]3C(=O)O)cc2C2CC2)CC1` [Example 9, (1,2-trans)-2-(5-cyclopropyl-4-((1-((S)-1-(3,5-dichlorophenyl)ethyl)piperidin-4-yl)methoxy)-2-fluorobenzoyl)cyclopentane-1-carboxylic acid], for which the IC50 worked out at 51 nM. For `C[C@H]1CC[C@@H](C(=O)c2cc(C3CC3)c(OCC34CC5CC(CC(C5)C3)C4)cc2F)[C@@H]1C(=O)O` [Example 11], the IC50 was 700 nM. Consider `C[C@@H]1CC[C@H](C(=O)c2cc(C3CC3)c(OCC34CC5CC(CC(C5)C3)C4)cc2F)[C@H]1C(=O)O` [Example 12], for which the IC50 was determined as 3 nM. `O=C(O)[C@@H]1CCC[C@H]1C(=O)c1cc(C2CC2)c(OCC2CCN(Cc3cc(C(F)(F)F)ccc3Cl)CC2)cc1F` [Example 13, (1R,2R)-2-(4-((1-(2-chloro-5-(trifluoromethyl)benzyl)piperidin-4-yl)methoxy)-5-cyclopropyl-2-fluorobenzoyl)cyclopentane-1-carboxylic acid]: the IC50 amounted to 21 nM. Consider `O=C(O)C1CCCC1Sc1cc(Cl)c(OCC23CC4CC(CC(C4)C2)C3)cc1F` (stereo not drawn) [Example 14], for which the IC50 came to 2630 nM. For the compound `O=C(O)C1CCCC1Nc1cc(Cl)c(OCC23CC4CC(CC(C4)C2)C3)cc1F` (stereo not drawn) [Example 17, 2-((4-adamant-1-ylmethoxy)-5-chloro-2-fluoro-anilino)cyclopentanecarboxylic acid], the IC50 is 3020 nM.
